Laboratory results: patent US20260293896A1, “PLANT GROWTH REGULATOR, PLANT GROWTH ACCELERATION METHOD, OR PLANT GROWTH-REGULATING PRODUCT” (KUREHA CORPORATION, priority 2022, published 2026)

How the values were obtained:
Format in all cases: in vivo
rapeseed [1] = test: Evaluation Example 5: Comparison of Elongated Plant Height of Rapeseed; conditions: petri dish, 5 mL, 25° C, 7th day after seeding, EGT 0.5 mM and/or component (A) 0.5 mM
Experimental: The plant growth regulators of Examples 9 to 13 and Comparative Examples 13 to 18 were prepared so as to attain the concentrations indicated in Table 5 below. EGT, Gln, Trp, Met, Phe and acetic acid were commercially available products, and pure water was used as a solvent.
(§1) Into a 9 cm petri dish on which filter paper was spread, 5 mL of the plant growth regulator was added. Ten seeds of rapeseed were sown per one petri dish. In a growth chamber set at room temperature of 25° C., the light period was 16 hours and the dark period was 8 hours. The light conditions were set such that the light intensity was 5000 lx in the central part under irradiation with the fluorescent lamp.
(§2) The plant height of the rapeseed on the 7th day after seeding was evaluated.

rapeseed [2] = test: Evaluation Example 6: Comparison of Elongated Plant Height of Rapeseed; conditions: petri dish, 5 mL, 25° C, 7th day after seeding, EGT 0.5 mM and/or component (A) 0.5 mM
Experimental: The plant growth regulators of Examples 14 to 17 and Comparative Examples 19 to 23 were prepared so as to attain the concentrations indicated in Table 6 below. EGT, Leu, Val, Tyr and Ser were commercially available products, and pure water was used as a solvent.
as §1, §2

wheat [3] = test: Evaluation Example 10: Comparison of Elongated Plant Height of Wheat; conditions: petri dish, 5 mL, 24° C, 7th day after seeding, EGT 0.5 mM and/or component (A) 0.5 mM
Experimental: The plant growth regulators of Examples 23 to 26 and Comparative Examples 32 to 36 were prepared so as to attain the concentrations indicated in Table 10 below. EGT, GABA, ornithine, carnitine and maleic acid were commercially available products, and pure water was used as a solvent.
(§3) Into a 9 cm petri dish on which filter paper was spread, 5 mL of the plant growth regulator was added. Ten seeds of wheat were sown per one petri dish. In a thermostatic chamber set at room temperature of 24° C., the light period was 16 hours and the dark period was 8 hours. The light conditions were set using a fluorescent lamp (PLANT FLEC, 40 W LED fluorescent lamp for plant growth, electric bulb color, available from Nippon Medical and Chemical Instruments Co., Ltd.) such that the light intensity was 5000 lx in the central part under irradiation with the fluorescent lamp.
(§4) The plant height of the wheat on the 7th day after seeding was evaluated.

wheat [4] = test: Evaluation Example 11: Comparison of Elongated Plant Height of Wheat; conditions: petri dish, 5 mL, 24° C, 7th day after seeding, EGT 0.5 mM and/or component (A) 0.1 mM (vitamin D2 0.01 mM)
Experimental: The plant growth regulators of Examples 27 to 31 and Comparative Examples 37 to 42 were prepared so as to attain the concentrations indicated in Table 11 below. EGT, Met, His, Cys, 5-ALA and vitamin D2 were commercially available products, and pure water was used as a solvent.
as §3, §4

radish (Akamaru Hatsuka) = test: Evaluation Example 13: Comparison of Aboveground Part Weight and Underground Part Weight of Radish; conditions: 50 mL on 15th, 17th, 20th days, evaluated 27th day after seeding, EGT 0.5 mM and/or Glu 0.5 mM
Experimental: The plant growth regulators of Example 34 and Comparative Examples 46 and 47 were prepared so as to attain the concentrations indicated in Table 13 below. EGT and Glu were commercially available products, and pure water was used as a solvent.
In a plastic pot having a diameter of 105 mm and a height of 90 mm, 450 g of granular soil (Kumiai horticultural soil) was placed, and one individual radish (Akamaru Hatsuka) was sown per one pot.
The radish was managed in a greenhouse set at room temperature of 25° C. Chemical treatment was started 2 weeks after seeding. More specifically, on the 15th, 17th, and 20th days after seeding, 50 mL of the plant growth regulator was added.
On the 27th day after seeding, the aboveground part weight and underground part weight were evaluated.

Compound: C[N+](C)(C)[C@@H](Cc1c[nH]c(=S)[nH]1)C(=O)[O-] [Comparative Example 13, L-(+)-ergothioneine]
- Elongated plant height, ratio to untreated control (rapeseed [1]): 1.1

Compound: C[N+](C)(C)[C@@H](Cc1c[nH]c(=S)[nH]1)C(=O)[O-] [Comparative Example 19, L-(+)-ergothioneine]
- Elongated plant height, ratio to untreated control (rapeseed [2]): 1.1

Compound: C[N+](C)(C)[C@@H](Cc1c[nH]c(=S)[nH]1)C(=O)[O-] [Comparative Example 32, L-(+)-ergothioneine]
- Elongated plant height, ratio to untreated control (wheat [3]): 1.1

Compound: C[N+](C)(C)[C@@H](Cc1c[nH]c(=S)[nH]1)C(=O)[O-] [Comparative Example 37, L-(+)-ergothioneine]
- Elongated plant height, ratio to untreated control (wheat [4]): 1.1

Compound: C[N+](C)(C)[C@@H](Cc1c[nH]c(=S)[nH]1)C(=O)[O-] [Comparative Example 46, L-(+)-ergothioneine]
- Aboveground part weight, ratio to untreated control (radish (Akamaru Hatsuka)): 1.1
- Underground part weight, ratio to untreated control (radish (Akamaru Hatsuka)): 1.1

Compound: N[C@@H](CCC(=O)O)C(=O)O [Comparative Example 47, L-glutamic acid]
- Aboveground part weight, ratio to untreated control (radish (Akamaru Hatsuka)): 1.1
- Underground part weight, ratio to untreated control (radish (Akamaru Hatsuka)): 1.1

Compound: NC(=O)CC[C@H](N)C(=O)O [compound 14, L-glutamine]
- Elongated plant height, ratio to untreated control (rapeseed [1]): 1.1

Compound: N[C@@H](Cc1c[nH]c2ccccc12)C(=O)O [compound 15, L-tryptophan]
- Elongated plant height, ratio to untreated control (rapeseed [1]): 0.5

Compound: CSCC[C@H](N)C(=O)O [compound 16, L-methionine]
- Elongated plant height, ratio to untreated control (rapeseed [1]): 1.0

Compound: N[C@@H](Cc1ccccc1)C(=O)O [compound 17, L-phenylalanine]
- Elongated plant height, ratio to untreated control (rapeseed [1]): 1.1

Compound: CC(=O)O [compound 18, acetic acid]
- Elongated plant height, ratio to untreated control (rapeseed [1]): 1.1

Compound: CC(C)C[C@H](N)C(=O)O [compound 20, L-leucine]
- Elongated plant height, ratio to untreated control (rapeseed [2]): 1.0

Compound: CC(C)[C@H](N)C(=O)O [compound 21, L-valine]
- Elongated plant height, ratio to untreated control (rapeseed [2]): 1.0

Compound: N[C@@H](Cc1ccc(O)cc1)C(=O)O [compound 22, L-tyrosine]
- Elongated plant height, ratio to untreated control (rapeseed [2]): 1.0

Compound: N[C@@H](CO)C(=O)O [compound 23, L-serine]
- Elongated plant height, ratio to untreated control (rapeseed [2]): 1.0

Compound: NCCCC(=O)O [compound 33, γ-aminobutyric acid]
- Elongated plant height, ratio to untreated control (wheat [3]): 1.0

Compound: NCCC[C@H](N)C(=O)O [compound 34, ornithine]
- Elongated plant height, ratio to untreated control (wheat [3]): 0.9

Compound: C[N+](C)(C)CC(O)CC(=O)[O-] (centres unmarked) [compound 35, carnitine]
- Elongated plant height, ratio to untreated control (wheat [3]): 0.9

Compound: O=C(O)/C=C\C(=O)O [compound 36, maleic acid]
- Elongated plant height, ratio to untreated control (wheat [3]): 0.9

Compound: CSCC[C@H](N)C(=O)O [compound 38, L-methionine]
- Elongated plant height, ratio to untreated control (wheat [4]): 0.8

Compound: N[C@@H](Cc1c[nH]cn1)C(=O)O [compound 39, L-histidine]
- Elongated plant height, ratio to untreated control (wheat [4]): 1.0

Compound: N[C@@H](CS)C(=O)O [compound 40, L-cysteine]
- Elongated plant height, ratio to untreated control (wheat [4]): 1.0

Compound: NCC(=O)CCC(=O)O [compound 41, 5-aminolevulinic acid]
- Elongated plant height, ratio to untreated control (wheat [4]): 0.9

Compound: C=C1CC[C@H](O)C/C1=C/C=C1\CCC[C@]2(C)[C@@H]([C@H](C)/C=C/[C@H](C)C(C)C)CC[C@@H]12 [compound 42, vitamin D2]
- Elongated plant height, ratio to untreated control (wheat [4]): 0.9
